Reference: patent publication US9709557B2, “Anthraquinone based near IR emitting compounds and uses thereof” (LIFE TECHNOLOGIES CORPORATION, priority 2008, dated 2017)

How the values were obtained:
Live Jurkat cells [1] = assay: DNA staining of live cells and cell cycle analysis using flow cytometry (Examples 42, 43); assay type: cell-based, human
Protocol: Live Jurkat cells are suspended at 5×10^5 cells/ml in each RPMI media with 10% FBS. Compound 19 is added to each of one mL cell suspensions at concentrations 5 μM, 10 μM, and 20 μM, and then incubated at 37° C. for 30 minutes while protected from light. Cells are run through the Becton Dickinson (BD) LSRII Flow Cytometer. Forward Scatter (FS) vs Side Scatter (SS) dual parameter plot is used to gate main cell population. Fluorescence is collected using […]: the 488 nm excitation laser with 780/60 bandpass emission filter, and using the 633 nm excitation laser with 780/60 bandpass emission filters, collecting 10,000 events at flow rate of ˜200 events/second. The data is further analyzed using MODFIT LT Flow Cytometry Modeling Software from Verity Software House, Inc. to look at ratio of G2/G1 and the % CV of G1 phase. […] Typical DNA content cell cycle histograms indicate G0G1 phase, S phase, and G2M phase, as obtained on the live cell gate, with all concentrations of the compound.
Live Jurkat cells suspended in RPMI media+10% FBS were stained with 5 μM, 10 μM, and 20 μM Compound 20 and analyzed with flow cytometry, as described in Example 42.

Live Jurkat cells [2] = assay: Comparison of DNA stains on cell viability (Example 44); assay type: cell-based; details: for % Dead Cells: ethidium homodimer-1
Protocol: Live Jurkat cells are suspended at 5×10^5 cells/ml in complete RPMI media with 10% FBS. Four aliquots of 10 ml each of the cell suspension are made. A final concentration of 5 μM Hoechst 33342 (Invitrogen Corporation) is added to one aliquot, a final concentration of 5 μM DRAQ5 (Biostatus Limited, UK) is added to one aliquot, a final concentration of 5 μM Compound 9 is added to one aliquot, and one aliquot remains untreated as a control. All four aliquots are placed in a 37° C. waterbath for 30 minutes in protected from light. After the incubation, all cell suspensions are centrifuged, the cells are pelleted and the supernatant discarded. To each aliquot, 5 ml media is added. Four culture flasks are prepared by adding 35 ml media to each. One 5 ml aliquot of cells is added to one flask for each on the four cell suspensions aliquots. The flasks are placed in a 37° C. incubator with 5% CO2 in the dark for 72 hours. Each flask of cells is then gently mixed and cell suspension is removed for testing. The cell concentration and image is performed using the Cellometer instrument from Nexcelom. Percentage and absolute cell counts of live and dead cells for each treatment are determined using the LIVE/DEAD Viability/Cytotoxicity Kit (Invitrogen Corporation, Carlsbad, Calif.) with COUNTBRIGHT Absolute Counting Beads (Invitrogen Corporation). This involves adding one ml cell suspension to a 12×75 mm test tube and adding 2 μl of a 50 μM calcein AM solution to identify living cells and 4 μl of a 2 mM ethidium homodimer-1 solution to identify dead cells. The cell suspension is mixed and incubated for 20 minutes at room temperature protected from light. After the end of the incubation, 50 μl of well mixed COUNTBRIGHT absolute counting beads are added to each test tube. Each sample is run through the Becton Dickinson (BD) LSRII Flow Cytometer. Forward Scatter (FS) versus Side Scatter (SS) dual parameter plot is used to gate main cell population, and a separate gate is made around the bead population. Fluorescence is collected using 488 nm excitation laser with 530/30 bandpass and 610/20 bandpass emission filters. Markers on a dual parameter plot of calcein fluorescence versus ethidium homodimer-1 fluorescence is used to obtain percent of cells which are living and dead, as well as number of cell events recorded. By using the COUNTBRIGHT absolute counting beads assay, the absolute number of living and dead cells is calculated by using the equation: A/B×C/D=concentration of cells/μL (A=number of cell events, B=number of bead events, C=assigned bead count, D=volume of the sample in μl).

HeLa and U2OS cells = assay type: cell-based
Protocol: HeLa and U2OS cells were stained with DRAQ5, Hoechst 33342, mitoxantrone, and Compound 9 over a range of concentrations to evaluate the effect of the tested DNA stains on cell proliferation over time. HeLa and U2OS cells were plated at 3000 cells/well and allowed to recover overnight before proceeding with dye incubations. Cells were incubated with 0, 1, 5 or 10 μM Compound 9, Hoechst 33342, mitoxantrone, and DRAQ5 for 30 minutes at culture conditions in DPBS with glucose, washed and then placed back into media at culture conditions. Plates were stained with 100 nM YOYO-1 (Invitrogen Corporation) before being fixed and stained with 1:1000 Hoechst 33342 (total cell number) at 24, 48 and 72 hours post dye incubation. Cells were imaged with the ArrayScan VTI immediately following staining and fixation. Data obtained were from repetitions of 4 wells/condition with 10 images taken per well.

Jurkat cells = assay: Comparison of DNA stains for staining live cells, post-sort viability and growth (Example 45); assay type: cell-based; details: 5 μM
Protocol: Jurkat cells were suspended at 5×10^5 cells/ml in complete RPMI media with 10% FBS and stained with either 5 μM Compound 9, 5 μM Hoechst 33342, or 5 μM DRAQ5 for 30 minutes at 37° C. protected from light. A control sample was also prepared with no dye treatment. Cells were washed and resuspended at 1×10^7 cells/ml in Complete RPMI+10% FBS media for sorting. Approximately 2 million Jurkat cells were sorted for each treatment by gating on the main cell population by scatter using a BD FACS Aria cell sorter. Cells were washed and plated at 1×10^5 cells/ml in complete media and grown at 37 C with 5% CO2. Cell Viability was assayed using the LIVE/DEAD Viability/Cytotoxicity Kit at 1, 2, and 3 days post sort (as described in Example 44). Brightfield images of cell growth after 8 days cell growth were collected. […] The percent of live cells decreased similarly in both Compound 9 and Hoechst 33342 treatments.

[3] = 20 μM, RPMI media+10% FBS, blue 488 laser, 780/60 emission
[4] = 20 μM, RPMI media+10% FBS, red 633 nm laser, 780/60 emission
[5] = 5 μM dye 30 min 37° C., then 72 hours culture

Compound: CN(C)CCNC(=O)CNc1ccc(O)c2c1C(=O)c1c(N)ccc(O)c1C2=O [Compound 19]
- % CV of G1-phase (Live Jurkat cells [1]; [3]): 8.0%
- G2/G1 ratio (Live Jurkat cells [1]; [3]): 1.86
- % CV of G1-phase (Live Jurkat cells [1]; [4]): 6.43%
- G2/G1 ratio (Live Jurkat cells [1]; [4]): 1.83
- % CV of G1-phase (Live Jurkat cells [1]; 5, 10, 20 μM, MODFIT analysis): < 8%

Compound: CN(C)CCNC(=O)CNc1ccc(N)c2c1C(=O)c1c(O)ccc(O)c1C2=O [Compound 20]
- % CV of G1-phase (Live Jurkat cells [1]; [4]): 6.41%
- G2/G1 ratio (Live Jurkat cells [1]; [4]): 1.84

Compound: CN(C)CCNc1ccc(O)c2c1C(=O)c1c(O)ccc(NCCN(C)C)c1C2=O [DRAQ5]
- % Dead Cells (Live Jurkat cells [2]; [5]): 95.7%
- membrane permeability indicated by YOYO-1 (HeLa and U2OS cells): high membrane permeability

Compound: CCOc1ccc(-c2nc3ccc(-c4nc5ccc(N6CCN(C)CC6)cc5[nH]4)cc3[nH]2)cc1 [Hoechst 33342]
- Cell Count (Cellometer) (Live Jurkat cells [2]; [5]): 2.6 × 10^5 cells/mL
- Cell Count (Flow Cytommetry) (Live Jurkat cells [2]; [5]): 0.9 × 10^5 cells/mL
- % Living Cells (Live Jurkat cells [2]; 5 μM dye 30 min 37° C., then 72 hours culture, calcein AM): 57.7%
- % Dead Cells (Live Jurkat cells [2]; [5]): 39.3%
- effect of treatment on cell viability (Live Jurkat cells [2]; 5 μM, 72 hours): maintained a majority of cells as living
- post-sort viability / cytotoxicity (Jurkat cells; 30 min 37° C., sorted, 1, 2 and 3 days post sort): very similar in post-sort viability, but less than non-stained control cells
- cell growth after sort (Jurkat cells; day 3 and 8 days post sort): beginning to divide again
